Here are results for 1 compound from article PMC9065678, “BI 1015550 is a PDE4B Inhibitor and a Clinical Drug Candidate for the Oral Treatment of Idiopathic Pulmonary Fibrosis” (Frontiers in Pharmacology, 2022).

The target of one data set is T1, PDE4C (Homo sapiens, UniProt Q08493).
T1 construct: made in house; host or cells: SF9 insect cells (baculovirus, Bac-To-Bac, pFastbac)
The experiment in a line: Recombinant PDE activity, scintillation proximity assay: PDE4C. The format is biochemical. The conditions noted are these: substrate [3H]cAMP, means from n independent experiments, read-out: IC50 PDE4C2. As for the experimental part: (§1) For the preparation of human recombinant PDEs of interest, the Bac-To-Bac baculoviral expression system from Invitrogen (Carlsbad, CA, United States) was used according to the instruction manual. […] The plasmids were transformed into DH10Bac bacteria, SF9 insect cells were transfected with the bacmid DNA, and the resulting baculoviruses were stored and used for further rounds of infections. For protein production, SF9 cells were infected until a cytopathic effect was visible (after about 72 h), the SF9 cells were harvested and broken up by 3 freeze/thaw cycles, and by shearing 10 times through a 0.1 mm cannula using a syringe. […] The Phosphodiesterase Scintillation Proximity Assays (TRKQ7090 for [^3H]cAMP, GE Healthcare Europe GmbH, Chalfont St Giles, United Kingdom, and TRKQ7100 for [^3H]cGMP, Perkin Elmer, Waltham, MA, United States) were performed essentially according to the instruction manual. […] Assay solutions containing recombinant baculoviral-expressed PDE (to give an activity of 5.000–20.000 cpm corresponding to 5–20% of total activity added), 50 mmol/L Tris/HCl pH 7.5, 8.3 mmol/L MgCl2, 1.7 mmol/L EGTA, and 10 µL radiolabeled substrate (0.05 µCi in H2O) were incubated for 1 h at 30°C (final volume 100 μL).
In general terms: SPA uses beads or plates that emit light when radiolabelled molecules are held near them.

For the next data set, the system named is α-SMA protein expression. Nature of the data set: α-SMA protein expression of TGF-β-stimulated IPF lung fibroblasts (Western blot replacement assay). In kind it is cell-based, human. As for the experimental part:
Fibroblasts from donors with IPF (IPF-LF) (Asterand, Detroit, MI, United States) were grown in fibroblast basal medium (CC-3131, Lonza Walkersville, Inc., Walkersville, MD, United States) supplemented with FGM-2 SingleQuot Kit Supplements and Growth Factors (CC-4126, Lonza). Cells were grown in a humidified incubator at 37°C and 5% CO2. All assays were performed at passage 7 or 8. For assay set-up, cells were seeded in fibroblast growth medium plus supplements in assay-relevant densities. For TGF-β-stimulated assays, cells were seeded at 4,500 cells per well in 96-well plates. Proliferation assays were performed in 96-well plates at an initial seeding cell density on day 0 of 2,000 cells per well. After 24-h, the cell culture medium was changed to starvation medium (fibroblast basal medium without supplements). After a 24-h starvation period, cells were pre-incubated for 30 min with different concentrations of BI 1015550 plus/minus different concentrations of nintedanib and/or 1 nmol/L PGE2 and stimulated with the assay-relevant stimulus for the indicated time in the presence of the compound.
For determination of α-SMA protein expression, IPF-LF cells were stimulated with TGF-β (4 ng/mL) for 48 h. Lysates were assayed in a Western blot replacement assay (MSD). In short, lysates were pipetted onto high binding plates (MSD) and were sequentially incubated with a mouse anti-human α-SMA antibody (Sigma Aldrich) and an anti-mouse sulfo-tag antibody (MSD). For analysis, an MSD sector imager was used.
In general terms: In western blotting, separated proteins are transferred to a membrane and probed.

A further data set has as its target T2, PDE4D (Homo sapiens, UniProt Q08499).
T2 construct: PDE4D NG_027957, AA 79–438; made in house; host or cells: SF9 insect cells (baculovirus, Bac-To-Bac, pFastbac)
The experiment in a line: Recombinant PDE activity, scintillation proximity assay: PDE4D. The conditions noted are these: human recombinant active site fragment, substrate [3H]cAMP, means from n independent experiments; read-out: IC50 PDE4D2. In kind it is biochemical. Here is the method:
as §1

In the next data set the test system is Suncus murinus. The experiment in a line: Determination of emesis in male Suncus murinus. In kind it is in vivo. Here is the method:
All animals (50–55 g) were dosed orally by gavage immediately before transfer to whole-body plethysmography boxes. The volume of application was set to 10 mL/kg body weight. For assessment of the emetic events, animals were placed in the whole-body plethysmography boxes without any access to feed or water for 3 h. The whole-body plethysmography system used to detect emetic events consisted of five major components: 1) plethysmography boxes for mice (Buxco®, PLY 3211-F, Data Sciences International, New Brighton, MN, United States), 2) a pressure transducer with an amplifier, 3) a bias flow regulator, 4) a PC-based system to receive and process the amplified signals, and 5) a PC-based data acquisition system (NOTOCORD-hem™, Instem, Stone, United Kingdom) to process signals, as well as in-house-developed software to detect and identify changes in breathing pattern. Retching and vomiting induced characteristic changes in the breathing pattern of animals and these were recorded by whole-body plethysmography and translated for NOTOCORD recording. A number of preset definitions (computer-based criteria) characteristic for emetic events were determined. Peaks that met the set internal computer-based criteria and exceeded the threshold of more than 600 mV were labeled as emetic events by the system on a standard basis.

T1 sequence (Q08493 107-712): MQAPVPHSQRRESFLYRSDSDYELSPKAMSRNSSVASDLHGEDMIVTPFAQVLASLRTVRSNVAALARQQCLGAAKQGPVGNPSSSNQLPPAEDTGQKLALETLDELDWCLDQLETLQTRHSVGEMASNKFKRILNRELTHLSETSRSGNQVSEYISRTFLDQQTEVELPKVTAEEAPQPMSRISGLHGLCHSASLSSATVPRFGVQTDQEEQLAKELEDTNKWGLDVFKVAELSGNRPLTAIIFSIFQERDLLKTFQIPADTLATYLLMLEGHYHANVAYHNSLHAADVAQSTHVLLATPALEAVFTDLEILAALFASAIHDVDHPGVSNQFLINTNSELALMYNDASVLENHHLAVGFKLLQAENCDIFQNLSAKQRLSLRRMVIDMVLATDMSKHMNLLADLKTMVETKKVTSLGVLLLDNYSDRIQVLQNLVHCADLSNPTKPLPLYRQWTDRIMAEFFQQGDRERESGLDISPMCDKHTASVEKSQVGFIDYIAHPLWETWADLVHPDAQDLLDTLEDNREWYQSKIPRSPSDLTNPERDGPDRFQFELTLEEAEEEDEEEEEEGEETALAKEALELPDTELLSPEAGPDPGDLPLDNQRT
T2 sequence (Q08499 381-740): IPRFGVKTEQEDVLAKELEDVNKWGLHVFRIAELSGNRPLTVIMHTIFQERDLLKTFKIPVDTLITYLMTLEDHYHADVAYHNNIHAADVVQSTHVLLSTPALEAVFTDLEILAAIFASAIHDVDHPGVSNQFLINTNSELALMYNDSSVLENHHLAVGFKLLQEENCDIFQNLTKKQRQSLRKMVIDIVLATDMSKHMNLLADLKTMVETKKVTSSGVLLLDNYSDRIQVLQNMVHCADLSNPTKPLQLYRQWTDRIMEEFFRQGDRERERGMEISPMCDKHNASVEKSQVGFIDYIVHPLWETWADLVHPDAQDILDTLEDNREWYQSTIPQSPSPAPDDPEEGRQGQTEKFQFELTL

For orientation: IC50 means the concentration that gives 50% inhibition. With `[O-][S+]1CCc2nc(N3CCC(c4ncc(Cl)cn4)CC3)nc(NC3(CO)CCC3)c21` (stereo not drawn) [BI 1015550], the IC50 at PDE4C is 8700 nM; in the data set on α-SMA protein expression (TGF-β (4 ng/mL, 48 h)-stimulated IPF-LF), 210 nM; at PDE4D it was 91 nM. The “Additional inhibitory efficacy on α-SMA protein expression in combination” value in the data set with α-SMA protein expression (combination with nintedanib 10–100 nmol/L) is “did not result in additional inhibitory efficacy”. The “Additional inhibitory effects in combination, myofibroblast transformation assay” value in the data set on α-SMA protein expression (combination with pirfenidone (100 µmol/L), data not shown) is on record as “did not yield any additional inhibitory effects”. The Animals showing emesis with Suncus murinus (0.5 mg/kg oral, 3 h observation, data not shown) is given as 3 of 24; with Suncus murinus (10 × ED50 oral (BI 1015550 6 mg/kg, roflumilast 10 mg/kg)), 5 out of 24. In the data set on Suncus murinus (0.5 mg/kg oral, data not shown), the “Mean emetic events per animal” value is reported as 0.1. In the data set on Suncus murinus (oral (BI 1015550 6 mg/kg, roflumilast 10 mg/kg), 24 animals), the “% of vomiting animals, emesis at 10 × ED50” value was determined as 21%.
